Results on 36 molecules are retold here after patent US8637511B2, “Aminopyrimidines useful as kinase inhibitors” (Vertex Pharmaceuticals Incorporated, priority 2005, dated 2014).

Structures are written as SMILES. Where two headings read alike, the source gives them in different places.

In assay [1] the target is T1, FLT-3 (Homo sapiens, UniProt P36888).
T1 sequence (P36888 27-993): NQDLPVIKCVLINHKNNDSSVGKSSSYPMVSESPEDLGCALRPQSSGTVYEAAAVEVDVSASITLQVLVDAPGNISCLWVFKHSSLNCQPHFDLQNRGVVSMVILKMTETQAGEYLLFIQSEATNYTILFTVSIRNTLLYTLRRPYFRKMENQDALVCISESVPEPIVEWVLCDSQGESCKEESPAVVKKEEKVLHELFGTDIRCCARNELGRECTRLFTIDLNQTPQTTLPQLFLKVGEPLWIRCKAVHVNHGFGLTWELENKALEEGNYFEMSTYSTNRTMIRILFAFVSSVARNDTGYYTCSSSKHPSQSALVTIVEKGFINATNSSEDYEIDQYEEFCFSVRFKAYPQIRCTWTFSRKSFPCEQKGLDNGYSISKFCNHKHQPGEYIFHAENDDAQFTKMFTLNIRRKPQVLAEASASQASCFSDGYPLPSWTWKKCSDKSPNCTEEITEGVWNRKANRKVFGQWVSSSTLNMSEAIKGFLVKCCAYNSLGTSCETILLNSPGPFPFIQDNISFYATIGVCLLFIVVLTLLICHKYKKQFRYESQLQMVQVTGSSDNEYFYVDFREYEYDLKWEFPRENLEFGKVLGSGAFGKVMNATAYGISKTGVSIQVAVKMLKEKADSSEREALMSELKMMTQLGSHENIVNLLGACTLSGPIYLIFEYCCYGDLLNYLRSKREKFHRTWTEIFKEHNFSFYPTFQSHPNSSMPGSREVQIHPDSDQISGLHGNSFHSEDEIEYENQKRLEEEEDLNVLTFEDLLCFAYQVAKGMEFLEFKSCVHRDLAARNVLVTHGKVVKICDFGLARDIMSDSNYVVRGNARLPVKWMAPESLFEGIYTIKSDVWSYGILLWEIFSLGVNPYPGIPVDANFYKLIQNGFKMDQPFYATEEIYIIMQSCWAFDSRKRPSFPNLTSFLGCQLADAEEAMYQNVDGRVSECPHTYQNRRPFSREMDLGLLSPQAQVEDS
The assay can be described thus: FLT-3 inhibition assay, radiometric filter-binding. In kind it is biochemical.

In assay [2] the test system is Colo205 cells. As to the kind of experiment: Analysis of cell proliferation and viability. The settings on record: Homo sapiens, COLO 205, Colo205 cells, read-out: IC50 value. In kind it is cell-based.

By Ki is commonly meant a measure of affinity in units of concentration, obtained from inhibition or displacement. In turn, `CC(C)(C)c1cc(Nc2cc(N3CCC3)nc(Sc3ccc(NC(=O)c4ccccc4Cl)cc3)n2)n[nH]1` [Compound 69] registered a Ki in assay [1] of 150 to 1000 nM.

As a reminder, the IC50 is the concentration at which inhibition is half-maximal. As for `CCC(=O)Nc1ccc(Sc2nc(Nc3cc(C)n[nH]3)cc(N3CC(OC)(C(C)(C)C)C3)n2)cc1` [Compound 90], the IC50 in assay [2] (incubated for 96 hours) was no more than 50 nM. The same molecule showed a Ki in assay [1] of no more than 50 nM.

`COCc1cc(Nc2cc(N3CCC3)nc(Sc3ccc(NC(=O)c4ccccc4Cl)cc3)n2)n[nH]1` [Compound 82]: the Ki in assay [1] lay within 150 to 1000 nM.

Consider `Cc1cc(Nc2cc(N3CC(O)(C4CC4)C3)nc(Sc3ccc4nc(C(F)(F)F)ccc4c3)n2)[nH]n1` [Compound 186], for which the IC50 in assay [2] (incubated for 72 hours) was in the range of 30 to 200 nM. This molecule displayed a Ki in assay [1] of 50 to 150 nM.

With `Cc1cc(Nc2nc(Sc3ccc(NC(=O)CC(F)(F)F)cc3)nc(N3CC(F)(C4CC4)C3)c2F)[nH]n1` [Compound 178], the IC50 in assay [2] (incubated for 72 hours) was 30 to 200 nM. In assay [1], this molecule showed a Ki of 150 to 1000 nM.

In the case of `Cc1cc(Nc2cc(N3CC(N4CC[C@H](F)C4)C3)nc(Sc3ccc(NC(=O)CC(F)(F)F)cc3)n2)[nH]n1` [Compound 185], the IC50 in assay [2] (incubated for 72 hours) is no more than 30 nM. In assay [1], this molecule yielded a Ki of 50 to 150 nM.

On to `COC1(C)CN(c2cc(Nc3cc(C)n[nH]3)nc(Sc3ccc(NC(=O)c4ccccc4Cl)cc3)n2)C1` [Compound 51], for which the IC50 was no more than 30 nM in assay [2] (incubated for 72 hours) and no more than 50 nM in assay [2] (incubated for 96 hours). The molecule further showed a Ki in assay [1] of 50 to 150 nM.

Turning to `Cc1cc(Nc2cc(N3CC(F)(C4CC4)C3)nc(Sc3ccc(NC(=O)CN(C)C)cc3)n2)[nH]n1` [Compound 152], the IC50 in assay [2] (incubated for 72 hours) was 30 to 200 nM. The molecule also had a Ki in assay [1] of 150 to 1000 nM.

As for `Cc1cc(Nc2cc(N3CCC3)nc(Sc3ccc(NC(=O)c4cnccc4C(F)(F)F)cc3)n2)[nH]n1` [Compound 59], the results for the IC50 in assay [2] (incubated for 72 hours) and in assay [2] (incubated for 96 hours) were greater than 200 nM and 50 to 1000 nM, respectively. This molecule also yielded a Ki in assay [1] of 150 to 1000 nM.

With `Cc1cc(Nc2cc(N3CC(O)(C4CC4)C3)nc(Sc3ccc4nc(C(F)(F)F)n(C)c4c3)n2)[nH]n1` [Compound 155], in assay [2] (incubated for 96 hours), the IC50 was no more than 50 nM. Moreover, in assay [1], the Ki was in the range of 50 to 150 nM.

In the case of `Cc1cc(Nc2cc(N3CC(C)(O)C3)nc(Sc3ccc(NC(=O)c4ccccc4Cl)cc3)n2)[nH]n1` [Compound 50], the IC50 was no more than 30 nM in assay [2] (incubated for 72 hours) and no more than 50 nM in assay [2] (incubated for 96 hours). For the same molecule, the Ki in assay [1] was no more than 50 nM.

Take `Cc1cc(Nc2cc(N3CC(F)(C4CC4)C3)nc(Sc3cnc4ccccc4c3)n2)[nH]n1` [Compound 206]: in assay [2] (incubated for 72 hours), the IC50 is greater than 200 nM. In assay [1], this molecule gave a Ki of no more than 50 nM.

`Cc1cc(Nc2cc(N3CCC3)nc(Sc3ccc(NC(=O)Cc4ccccc4Cl)cc3)n2)[nH]n1` [Compound 57]: the IC50 in assay [2] (incubated for 96 hours) was in the range of 50 to 1000 nM. In assay [1] (read-out: FLT-3 Ki value), the inhibition constant (Ki) is 150 to 1000 nM.

Turning to `Cc1cc(Nc2cc(N3CC(OC(C)C)C3)nc(Sc3ccc(NC(=O)c4ccccc4Cl)cc3)n2)n[nH]1` [Compound 38], the IC50 in assay [2] (incubated for 96 hours) is no more than 50 nM. This molecule also displayed a Ki in assay [1] of 150 to 1000 nM.

Turning to `Cc1cc(Nc2cc(N3CC(F)(C4CC4)C3)nc(Sc3ccc(NC(=O)C4(C)CC4)cc3)n2)[nH]n1` [Compound 203], the IC50 in assay [2] (incubated for 72 hours) was in the range of 30 to 200 nM. In assay [1] (read-out: FLT-3 Ki value), the Ki lay within 150 to 1000 nM.

Turning to `Cc1cc(Nc2cc(N3CCC3)nc(Sc3ccc(NC(=O)c4ccc(-c5ccccc5)cc4Cl)cc3)n2)[nH]n1` [Compound 83], in assay [2] (incubated for 72 hours), the IC50 was in the range of 30 to 200 nM. For the same molecule, the Ki in assay [1] (read-out: FLT-3 Ki value) lay in the range of 150 to 1000 nM.

For the molecule `Cc1cc(Nc2cc(N3CC(OC(=O)CN(C)C)(C4CC4)C3)nc(Sc3ccc(NC(=O)C4CC4)cc3)n2)n[nH]1` [Compound 119], the IC50 in assay [2] (incubated for 72 hours) was 30 to 200 nM. In addition, the Ki in assay [1] (read-out: FLT-3 Ki value) is no more than 50 nM.

Regarding `CCC(=O)Nc1ccc(Sc2nc(Nc3cc(C)n[nH]3)cc(N3CC4(C3)OCC4(C)C)n2)cc1` [Compound 92], in assay [2] (incubated for 96 hours), the IC50 was no more than 50 nM. Besides, the Ki in assay [1] (read-out: FLT-3 Ki value) is no more than 50 nM.

Consider `CCOC1CN(c2cc(Nc3cc(C)[nH]n3)nc(Sc3ccc(NC(=O)c4ccccc4Cl)cc3)n2)C1` [Compound 37], for which the IC50 in assay [2] (incubated for 96 hours) fell in the range of 50 to 1000 nM. This molecule returned a Ki in assay [1] of 50 to 150 nM.

With `Cc1cc(Nc2cc(N3CC(O)(C4CC4)C3)nc(Sc3ccc(NC(=O)C4CC4)c(F)c3)n2)[nH]n1` [Compound 109], the IC50 in assay [2] (incubated for 96 hours) lay within 50 to 1000 nM. In addition, the Ki in assay [1] (read-out: FLT-3 Ki value) was no more than 50 nM.

`Cc1cc(Nc2cc(N3CC(N4CCOCC4)C3)nc(Sc3ccc4c(c3)CN(CC(F)(F)F)C4=O)n2)[nH]n1` [Compound 173]: the IC50 in assay [2] (incubated for 72 hours) lay within 30 to 200 nM. In assay [1], the Ki is no more than 50 nM.

For the molecule `CCC(=O)Nc1ccc(Sc2nc(Nc3cc(C)n[nH]3)cc(N3CC(C)(N4CCOCC4)C3)n2)cc1` [Compound 88], the IC50 in assay [2] (incubated for 96 hours) is no more than 50 nM. Further, in assay [1], the Ki was no more than 50 nM.

On to `CCC(=O)Nc1ccc(Sc2nc(Nc3cc(C)n[nH]3)cc(N3CC(OC(C)(C)C)C3)n2)cc1` [Compound 67], for which the IC50 in assay [2] (incubated for 96 hours) fell in the range of 50 to 1000 nM. The Ki in assay [1] (read-out: FLT-3 Ki value) fell in the range of 50 to 150 nM.

Turning to `Cc1cnc(Nc2cc(N3CC(F)(C4CC4)C3)nc(Oc3ccc(NC(=O)CC(F)(F)F)cc3)n2)s1` [Compound 181], the IC50 in assay [2] (incubated for 72 hours) is 30 to 200 nM. In assay [1], this molecule gave a Ki of no more than 50 nM.

For `Cc1cc(Nc2cc(N3CC(F)(C4CC4)C3)nc(Oc3ccc(NC(=O)CC(F)(F)F)cc3)n2)[nH]n1` [Compound 144], the IC50 in assay [2] (incubated for 72 hours) was no more than 30 nM. This molecule displayed a Ki in assay [1] of no more than 50 nM.

On to `Cc1cc(Nc2cc(N3CC(C)(C#N)C3)nc(Sc3ccc(NC(=O)CC(F)(F)F)cc3)n2)[nH]n1` [Compound 169], for which the IC50 in assay [2] (incubated for 72 hours) was in the range of 30 to 200 nM. This molecule also showed a Ki in assay [1] of no more than 50 nM.

As for `Cc1cc(Nc2cc(N3CC(C)(C(C)(C)F)C3)nc(Sc3ccc(NC(=O)CC(F)(F)F)cc3)n2)[nH]n1` [Compound 183], in assay [2] (incubated for 72 hours), the IC50 is no more than 30 nM. In assay [1], this molecule registered a Ki of no more than 50 nM.

Turning to `Cc1cc(Nc2cc(N3CC(N4CCCC4)C3)nc(Sc3ccc(NC(=O)CC(F)(F)F)cc3)n2)[nH]n1` [Compound 204], in assay [2] (incubated for 72 hours), the IC50 was no more than 30 nM. In assay [1], this molecule had a Ki of 50 to 150 nM.

Consider `CC(C)=C1CN(c2cc(Nc3cc(C)n[nH]3)nc(Sc3ccc(NC(=O)CC(F)(F)F)cc3)n2)C1` [Compound 184], for which the IC50 in assay [2] (incubated for 72 hours) fell in the range of 30 to 200 nM. Further, in assay [1], the Ki lay in the range of 50 to 150 nM.

Consider `Cc1cc(Nc2cc(N3CC(F)(C4CC4)C3)nc(Sc3ccc(NS(C)(=O)=O)cc3)n2)[nH]n1` [Compound 151], for which the IC50 in assay [2] (incubated for 72 hours) was in the range of 30 to 200 nM. Further, the Ki in assay [1] was no more than 50 nM.

Take `Cc1cc(Nc2cc(N3CC(C)(F)C3)nc(Sc3ccc(NC(=O)CC(F)(F)F)cc3)n2)n[nH]1` [Compound 168, N-(4-(4-(5-methyl-1H-pyrazol-3-ylamino)-6-(3-fluoro-3-methylazetidin-1-yl)pyrimidin-2-ylthio)phenyl)-3,3,3-trifluoropropanamide]: in assay [2] (incubated for 72 hours), the IC50 lay within 30 to 200 nM. In assay [1], this molecule registered a Ki of no more than 50 nM.

Consider `CCC(=O)Nc1ccc(Sc2nc(Nc3cc(C)n[nH]3)cc(N3CC(C)(N4CCCC4)C3)n2)cc1` [Compound 89], for which the results for the IC50 in assay [2] (incubated for 72 hours) and in assay [2] (incubated for 96 hours) were no more than 30 nM and no more than 50 nM, respectively. For the same molecule, the Ki in assay [1] (read-out: FLT-3 Ki value) is no more than 50 nM.

For `Cc1cc(Nc2cc(N3CC(F)(C4CC4)C3)nc(Sc3ccc(C(=O)NCC(F)(F)F)cc3)n2)[nH]n1` [Compound 205], the IC50 in assay [2] (incubated for 72 hours) is no more than 30 nM. In assay [1], this molecule yielded a Ki of 50 to 150 nM.

On to `Cc1cc(Nc2cc(N3CC(O)(C4CC4)C3)nc(Sc3cc(F)c4nc(C)ccc4c3)n2)[nH]n1` [Compound 172], for which the IC50 in assay [2] (incubated for 72 hours) was no more than 30 nM. The molecule further registered a Ki in assay [1] of 50 to 150 nM.

With `CCC(=O)Nc1ccc(Sc2nc(Nc3cc(C)n[nH]3)cc(N3CC(N4CCOCC4)C3)n2)cc1` [Compound 68], the IC50 in assay [2] (incubated for 96 hours) lay within 50 to 1000 nM. The inhibition constant Ki in assay [1] (read-out: FLT-3 Ki value) was in the range of 50 to 150 nM.

As for `Cc1cc(Nc2cc(N3CC(N4CCOCC4)C3)nc(Sc3ccc4nc(CC(F)(F)F)n(C)c4c3)n2)[nH]n1` [Compound 177], the IC50 in assay [2] (incubated for 72 hours) lay in the range of 30 to 200 nM. The same molecule displayed a Ki in assay [1] of 150 to 1000 nM.
